What was measured:
[1] = tested on: plasma glucose concentration; experiment: Hypoglycaemic effect (plasma glucose) after intravenous INS, PK-PD indirect response modelling; assay type: in vivo, rat
Description: An indirect response model was used to analyse the PK–PD relationship. The differential equation for the INS stimulus of the model is as follows:5 dGlc/dt=KGin-1+Smax∙SIG^γ/SC50^γ+SIG^γkGout∙Glc, where Glc is the plasma glucose concentration (mg/dL), SIG is the theoretical signal strength concerned with the hypoglycaemic effect of INS, Smax is the maximum effect, SC50 is the SIG producing 50% of Smax, r is Hill’s constant, KGin is the zero-order rate constant concerned with endogenous glucose production, and kGout is the first-order rate constant (min^−1) concerned with glucose elimination. Before INS is administered, the observed baseline level of Glc is maintained as G00 (105.12 mg/dL), which is determined by KGin = kGout.G00. Equation (5) can comprehensively express the mechanism of action of INS that is not assumed in the following model.
To assess the contribution of the receptor-binding process of INS to the hypoglycaemic effect, the INS receptor-based PK–PD model (IR model) was designed as follows:6 ϕ=CIns∙100/Kd+CIns-ϕ00.
We assumed that SIG is equal to the value of Φ in this model. To evaluate the contribution of the translocation process to the hypoglycaemic effect, the GLUT4 translocation-based PK–PD model (GT model) was designed as follows:7 dG4A/dt=α∙CIns-C00-G4A/TAB, 8 dG4B/dt=G4A/TAB-G4B/TBA. […]

[2] = rat, in vivo, iv; SD
Description: Animal experiments were performed following the procedures as described earlier[26], with slight adaptations. In short, male Wistar rats (Japan SLC, Shizuoka, Japan) weighing 270–320 g were used in this study. Rats were housed in controlled environmental facilities (temperature: 24 ± 1 °C, humidity: 55% ± 10%) under a 12:12-h light–dark cycle (06:00 h/18:00 h) for more than 1 week and allowed free access to a standard diet and tap water. One day before the experiment, rats were anaesthetized with ethyl ether and implanted surgically with a phycon tube connected to a PE50 catheter in the jugular vein for drug administration and another phycon-PE50 catheter in the femoral vein for blood sampling. Both catheters were externalized through the back in the neck region and secured. Unless otherwise specified, all animal experiments were conducted without restraint or anaesthesia and in a fasted state. On the day of the experiment, each rat was housed in an individual cage and left alone for at least 1 h. INS was dissolved in a 0.1% bovine serum albumin solution. Pulsatile administration of INS was performed by repeated intravenous bolus injections at constant intervals of 6–60 min within 2 h (total dose: 0.5 IU/kg). As controls, a single bolus injection or 2-h infusion were also conducted at doses of 0.5 IU/kg and 0.25 IU/kg/h, respectively. INS (0.025–0.5 IU/kg) was intravenously injected to estimate PK and PD parameters. Blood samples (≤ 0.1 mL) were withdrawn from the femoral vein before and at designated times after dosing. The blood samples were transferred to heparinized tubes, then centrifuged (12,000 × g, 5 min). The isolated plasma was stored frozen at − 20 °C until analysis. Immunoreactive INS concentrations in plasma were determined using an enzyme-linked immunosorbent assay (ELISA) kit (Shibayagi, Gunma, Japan). The mutarotase glucose oxidase method kit (Wako Pure Chemical Industries, Osaka, Japan) was used to measure plasma glucose concentrations. […]
The concentration–time data were analysed by the nonlinear regression program FKDM[27]. […]

[3] = tested on: INS receptors, rat soleus muscle cells; conditions: fixed value in the IR model, read-out: dissociation constant (Kd); cited from earlier work
Description: In the post-prandial state, the uptake of glucose from the blood in vivo mainly occurs in skeletal muscle, which expresses INS receptors. […] Although there are various kinds of skeletal muscle in the body, it would not be useful to individually model each receptor in all skeletal muscles, because this complicates the model. […] We assumed that SIG is equal to the value of Φ in this model. To evaluate the contribution of the translocation process to the hypoglycaemic effect, the GLUT4 translocation-based PK–PD model (GT model) was designed as follows:7 dG4A/dt=α∙CIns-C00-G4A/TAB, 8 dG4B/dt=G4A/TAB-G4B/TBA. || page 3: Parameters Estimated values Pharmacokinetic parameters k12 (min-1) 0.843 ± 0.25 k (min-1) 0.419 ± 0.073 21 k10 (min-1) 0.000314 ± 0.0079 Km (ng/kg) 1538 ± 624 Vmax (ng/kg/min) 3243 ± 649 Vc (mL/kg) 29.3 ± 6.6 Pharmacodynamic parameters of the IR model Kd (nmol/L) 2.062 FIX SC50IR (%) 7.60 ± 1.8 SmaxIR 3.01 ± 0.31 γ 2.25 ± 1.8 IR kGoutIR (min-1) 0.0208 ± 0.0018 Pharmacodynamic parameters of the GT model α 0.153 ± 0.56 T (min) 3 FIX AB TBA (min) 20 FIX SC50GT 100.22 ± 354 SmaxGT 2.58 ± 1.3 γGT 0.736 ± 0.11 kGoutGT (min-1) 0.141 ± 0.021 Supplementary Table S1. Pharmacokinetic and pharmaco ...

Substance: Human recombinant INS (Humulin R)
- time required for the maximal hypoglycaemic effect ([1]; after single i.v. bolus administration, rats (Fig. 3)): about 20 min
- area between the effect-time curve and the basal concentration (AUE), pulsatile administration compared with single bolus ([1]; total 0.5 IU/kg i.v. within 2 h, 2-20 pulses vs bolus 0.5 IU/kg, rats, depends on pulse rate, saturated above four injections, Dunnett's test, n = 3-4): significantly higher
- Km, Michaelis-Menten kinetic constant of elimination [2]: 1538 ± 624 ng/kg
- Vc, volume of distribution for the central (plasma) INS compartment [2]: 0.0293 ± 0.0066 L/kg
- Vmax, Michaelis-Menten kinetic constant of elimination [2]: 3243 ± 649 ng/kg/min
- Kd [3]: 2.06 nM

Source: article PMC7608663, “Pharmacokinetic–pharmacodynamic modelling of the hypoglycaemic effect of pulsatile administration of human insulin in rats” (Scientific Reports, 2020)
